Measured values reported in ChEMBL document CHEMBL1201862, “PubChem BioAssay data set” (2004).
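Results reflect a 48-hour exposure of cells in 96-well plates to compound at five concentrations. The concentration for 50% growth inhibition is given as GI50.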 Active and inactive are the calls of the source. Rule as the data show it: active = GI50 up to about 1.1 µM and inactive = higher.

Experiments:
Test in all cases: NCI anticancer screen, dose series, 48 h
[1] = tested on: SK-MEL-2
[2] = tested on: SK-OV-3
[3] = tested on: A498
[4] = tested on: NCI/ADR-RES
[5] = tested on: ACHN
[6] = tested on: NCI-H23
[7] = tested on: MCF7
[8] = tested on: MDA-N
[9] = tested on: UACC-62
[10] = tested on: KM12
[11] = tested on: HOP-92
[12] = tested on: HOP-62
[13] = tested on: A549
[14] = tested on: TK-10
[15] = tested on: M14
[16] = tested on: HT-29
[17] = tested on: DU-145
[18] = tested on: OVCAR-3
[19] = tested on: HCT-15
[20] = tested on: T47D

Structure (SMILES) | GI50 [1] | GI50 [2] | GI50 [3] | GI50 [4] | GI50 [5] | GI50 [6] | GI50 [7] | GI50 [8] | GI50 [9] | GI50 [10] | GI50 [11] | GI50 [12] | GI50 [13] | GI50 [14] | GI50 [15] | GI50 [16] | GI50 [17] | GI50 [18] | GI50 [19] [µM] | GI50 [20]
CN(C)CCCNc1cc(O)c2c(c1O)C(=O)c1ccccc1C2=O | 19.8 µM (inactive) | 12.2 µM (inactive) | 19.5 µM (inactive) | 3.4 µM (inactive) | 12.9 µM (inactive) | 13.3 µM (inactive) | 11.6 µM (inactive) | 14.3 µM (inactive) | 18.4 µM (inactive) | 9.4 µM (inactive) | 12.3 µM (inactive) | 11.1 µM (inactive) | 10.9 µM (inactive) | 10.2 µM (inactive) | 5.38 µM (inactive) | 11 µM (inactive) | 14.8 µM (inactive) | 11.3 µM (inactive) | 5.26 | 19 µM (inactive)
CC(=O)[C@]1(C)[C@H](C)O[C@](C)(CO)[C@H]1O[Si](C)(C)c1ccccc1 | > 100 µM (inactive) | > 100 µM (inactive) | > 100 µM (inactive) | 37.3 µM (inactive) | 46.7 µM (inactive) | 20.5 µM (inactive) | 31.8 µM (inactive) | 54 µM (inactive) | 97.9 µM (inactive) | 47.6 µM (inactive) | 11.2 µM (inactive) | > 100 µM (inactive) | 56.6 µM (inactive) | 82.4 µM (inactive) | 83 µM (inactive) | 78.7 µM (inactive) | 57.1 µM (inactive) | 55 µM (inactive) | 23 | 17.8 µM (inactive)
C=CC(C)CCC(C/C=C(\C)CCC=C(C)C)C(=C)CCCC(C)C (centres undefined) | > 100 µM (inactive) | > 100 µM (inactive) | > 100 µM (inactive) | > 100 µM (inactive) | > 100 µM (inactive) | > 100 µM (inactive) | > 100 µM (inactive) | > 100 µM (inactive) | > 100 µM (inactive) | > 100 µM (inactive) | > 100 µM (inactive) | > 100 µM (inactive) | > 100 µM (inactive) | > 100 µM (inactive) | > 100 µM (inactive) | > 100 µM (inactive) | > 100 µM (inactive) | > 100 µM (inactive) | > 100 | > 100 µM (inactive)
C=CC[C@H]1[C@H](O[Si](C)(C)C(C)(C)C)C=CC(=O)[C@@H]1CC(=O)OCC | 14.9 µM (inactive) | 18.3 µM (inactive) | 13.7 µM (inactive) | 11 µM (inactive) | 14.2 µM (inactive) | 15.5 µM (inactive) | 11.5 µM (inactive) | 15.7 µM (inactive) | 11.9 µM (inactive) | 13.4 µM (inactive) | 11.5 µM (inactive) | 17.5 µM (inactive) | 11.7 µM (inactive) | 14.8 µM (inactive) | 12.7 µM (inactive) | 9.06 µM (inactive) | 16.4 µM (inactive) | 13.1 µM (inactive) | 13.5 | 6.04 µM (inactive)
Fc1cc(C2=C[C@H](c3ccc4c(c3)OCO4)NC(=S)N2)c(Cl)cc1Cl | 20.9 µM (inactive) | 57 µM (inactive) | 20.8 µM (inactive) | 51.6 µM (inactive) | 28.8 µM (inactive) | 60.8 µM (inactive) | 32.2 µM (inactive) | 35.6 µM (inactive) | 35.9 µM (inactive) | 38 µM (inactive) | 25.9 µM (inactive) | 39.5 µM (inactive) | 35.6 µM (inactive) | 28.8 µM (inactive) | 40.4 µM (inactive) | 27.9 µM (inactive) | 49 µM (inactive) | 30.2 µM (inactive) | 37.4 | 20.2 µM (inactive)
Cc1nn(C2OC(CO)C(O)C(F)C2O)c(=O)[nH]c1=O (centres undefined) | > 100 µM (inactive) | > 100 µM (inactive) | > 100 µM (inactive) | > 100 µM (inactive) | > 100 µM (inactive) | > 100 µM (inactive) | > 100 µM (inactive) | > 100 µM (inactive) | > 100 µM (inactive) |  | > 100 µM (inactive) |  | > 100 µM (inactive) | > 100 µM (inactive) | > 100 µM (inactive) | > 100 µM (inactive) | > 100 µM (inactive) | > 100 µM (inactive) | > 100 | > 100 µM (inactive)
Nc1nc(Cl)c(N)c(NCC2(CO)CC(OCc3ccccc3)C2)n1 (centres undefined) | > 100 µM (inactive) | > 100 µM (inactive) | 76.4 µM (inactive) | 48 µM (inactive) | > 100 µM (inactive) | 4.17 µM (inactive) | 11.3 µM (inactive) | > 100 µM (inactive) | > 100 µM (inactive) | > 100 µM (inactive) | > 100 µM (inactive) | > 100 µM (inactive) | > 100 µM (inactive) | 44 µM (inactive) | > 100 µM (inactive) | > 100 µM (inactive) | > 100 µM (inactive) | > 100 µM (inactive) | > 100 | 23.7 µM (inactive)
COC1(OC)N=C(N)C2(C#N)/C(=N/N(C)C)CC(C)C12C#N (centres undefined) | > 100 µM (inactive) | > 100 µM (inactive) | > 100 µM (inactive) | > 100 µM (inactive) | > 100 µM (inactive) | > 100 µM (inactive) | > 100 µM (inactive) | > 100 µM (inactive) | > 100 µM (inactive) | > 100 µM (inactive) | > 100 µM (inactive) | > 100 µM (inactive) | > 100 µM (inactive) | > 100 µM (inactive) | > 100 µM (inactive) | > 100 µM (inactive) | > 100 µM (inactive) |  | > 100 | > 100 µM (inactive)
O=C1O/C(=C(/Cl)c2c3ccccc3cc3ccccc23)c2ccccc21 | 15.8 µM (inactive) | 69.5 µM (inactive) | 27 µM (inactive) | 35.2 µM (inactive) | 24.5 µM (inactive) | 26.1 µM (inactive) | 32.1 µM (inactive) | 27.4 µM (inactive) | 28.6 µM (inactive) | 4.02 µM (inactive) | 21.8 µM (inactive) | 29.1 µM (inactive) | 37.1 µM (inactive) | 32.8 µM (inactive) | 21.4 µM (inactive) | 13.1 µM (inactive) | 45.4 µM (inactive) | 20.1 µM (inactive) | 20.6 | 80.5 µM (inactive)
O=C1/C(=C/Cc2ccco2)N=C(c2ccccc2)N1c1nc2c(Cl)cc(Cl)cc2s1 | 23.7 µM (inactive) | 35.2 µM (inactive) | 15.2 µM (inactive) | 24.3 µM (inactive) | 24.6 µM (inactive) |  | 25.6 µM (inactive) | 20.9 µM (inactive) | 27.5 µM (inactive) | 27.7 µM (inactive) | 27.8 µM (inactive) | 24.8 µM (inactive) | 26.4 µM (inactive) | 42.7 µM (inactive) | 39.3 µM (inactive) | 30.8 µM (inactive) | 27.4 µM (inactive) | 22.5 µM (inactive) | 27.9 | 16.8 µM (inactive)
OC1CN2Cc3cc4c(cc3[C@]13C=C[C@@H](O)CC23)OCO4 (some centres undefined) | 31.6 µM (inactive) | 20.2 µM (inactive) | 34.4 µM (inactive) | 54.3 µM (inactive) | 7.85 µM (inactive) | 36.1 µM (inactive) | 16.4 µM (inactive) | 17 µM (inactive) | 33 µM (inactive) | 18.1 µM (inactive) | 21.3 µM (inactive) | 41.1 µM (inactive) | 19.5 µM (inactive) | 23.2 µM (inactive) | 20.5 µM (inactive) | 10.9 µM (inactive) | 8.69 µM (inactive) | 37.2 µM (inactive) | 30.3 | 4.82 µM (inactive)
CC(C)(C)CN1[C@@H]2CCCC[C@H]2N(CC(C)(C)C)P1(=O)C(O)/C=C/c1ccccc1 (some centres undefined) | 33.3 µM (inactive) | 51.8 µM (inactive) | 28.6 µM (inactive) | 32.7 µM (inactive) | 28.9 µM (inactive) | 56.6 µM (inactive) | 28.6 µM (inactive) | 35.3 µM (inactive) | 35.2 µM (inactive) | 33.7 µM (inactive) | 28.8 µM (inactive) | 50.2 µM (inactive) | 25.1 µM (inactive) | 50.4 µM (inactive) | 27.1 µM (inactive) | 31.5 µM (inactive) | 58.1 µM (inactive) | 34.6 µM (inactive) | 18.5 | 26.1 µM (inactive)
CCCC[C@@H]1CCN2C[C@@H](O)[C@@H](O)[C@@H]2[C@H]1O | > 100 µM (inactive) | > 100 µM (inactive) | > 100 µM (inactive) | > 100 µM (inactive) | > 100 µM (inactive) | > 100 µM (inactive) | > 100 µM (inactive) | > 100 µM (inactive) | > 100 µM (inactive) | > 100 µM (inactive) | > 100 µM (inactive) |  | > 100 µM (inactive) |  | > 100 µM (inactive) | > 100 µM (inactive) | > 100 µM (inactive) | > 100 µM (inactive) | > 100 | > 100 µM (inactive)
Cc1nc2ccccc2n1Cc1nnc(-c2ccccc2)o1 | > 100 µM (inactive) | > 100 µM (inactive) | > 100 µM (inactive) | > 100 µM (inactive) | > 100 µM (inactive) | > 100 µM (inactive) | 63.1 µM (inactive) | 70.3 µM (inactive) | > 100 µM (inactive) | 20.6 µM (inactive) | > 100 µM (inactive) | > 100 µM (inactive) | 52.4 µM (inactive) | > 100 µM (inactive) | > 100 µM (inactive) | 52.5 µM (inactive) | > 100 µM (inactive) | > 100 µM (inactive) | > 100 | 57.8 µM (inactive)
